Data taken from US20240041877A1, “DOSAGE REGIME AND METHOD FOR TREATING PULMONARY ARTERIAL HYPERTENSION” (Altavant Sciences GmbH, priority 2019, published 2024).
Where two headings read alike, the source gives them in different places.

Experiments:
[1] = Part 1 (SAD): urine pharmacokinetics (amount excreted, renal clearance) after a single oral dose of KAR5585; type: in vivo, human; details: for CL renal: human
Method: Renal clearance of KAR5417 was calculated from the area under the plasma time concentration curve (AUC0-96) for KAR5417 and the amount of KAR5417 recovered in urine (Table 21).

[2] = Cardiac conduction (QTcF) in healthy adult subjects; type: in vivo, human
[3] = clinical; details: human; for Cmax at 1 day / Cmax at 14 day: 100 mg
Description: Food effect was to be evaluated in Part 1, Period 2.
Pharmacokinetic data were to be summarized descriptively.

[4] = KAR5585 in urine, 100 mg KAR5585 single oral dose, mean
[5] = KAR5585 in urine, 200 mg KAR5585 single oral dose, mean
[6] = KAR5585 in urine, 400 mg (Fasted) KAR5585 single oral dose, mean
[7] = KAR5585 in urine, 400 mg (Fed) KAR5585 single oral dose, mean
[8] = KAR5585 in urine, 700 mg KAR5585 single oral dose, mean

With `Nc1nc(O[C@H](c2ccc(Cl)cc2-c2ccccc2)C(F)(F)F)cc(N2CCC3(CC2)CN[C@H](C(=O)O)C3)n1` [KAR5417, (S)-8-(2-amino-6-((R)-1-(5-chloro-[1,1T-biphenyl]-2-yl)-2,2,2-trifluoroeth-oxy)pyrimidin-4-yl)-2,8-diazaspiro[4.5]decane-3-carboxylic acid] the “highest amount excreted in urine” value ([1]; 400 mg fed Cohort (Cohort 3B)) was 0.331 % of the dose, the “Amount Excreted (Ae)” value ([1]; KAR5417 in urine, 100 mg KAR5585 single oral dose, mean) was 233 µg and the “Total Excreted (%)” value ([1]; KAR5417 in urine, 100 mg KAR5585 single oral dose, mean, assuming complete conversion of KAR5585 to KAR5417) was 0.245%. The “Amount Excreted (Ae)” value ([1]; KAR5417 in urine, 200 mg KAR5585 single oral dose, mean) was 211 µg, the “Total Excreted (%)” value ([1]; KAR5417 in urine, 200 mg KAR5585 single oral dose, mean, assuming complete conversion of KAR5585 to KAR5417) was 0.111% and the “Amount Excreted (Ae)” value ([1]; KAR5417 in urine, 400 mg (fasted) KAR5585 single oral dose, mean) was 769 µg. For the same compound, the “Total Excreted (%)” value ([1]; KAR5417 in urine, 400 mg (fasted) KAR5585 single oral dose, mean, assuming complete conversion of KAR5585 to KAR5417) was 0.202%, the “Amount Excreted (Ae)” value ([1]; KAR5417 in urine, 400 mg (fed) KAR5585 single oral dose, mean) was 1260 µg and the “Total Excreted (%)” value ([1]; KAR5417 in urine, 400 mg (fed) KAR5585 single oral dose, mean, assuming complete conversion of KAR5585 to KAR5417) was 0.331%. For the same compound, the “Amount Excreted (Ae)” value ([1]; KAR5417 in urine, 700 mg KAR5585 single oral dose, mean) was 998 µg, the “Total Excreted (%)” value ([1]; KAR5417 in urine, 700 mg KAR5585 single oral dose, mean, assuming complete conversion of KAR5585 to KAR5417) was 0.150% and the “Amount Excreted (Ae)” value ([1]; KAR5417 in urine, 1200 mg KAR5585 single oral dose, mean) was 1170 µg. For the same compound, the “Total Excreted (%)” value ([1]; KAR5417 in urine, 1200 mg KAR5585 single oral dose, mean, assuming complete conversion of KAR5585 to KAR5417) was 0.102%, the “Amount Excreted (Ae)” value ([1]; KAR5417 in urine, 2000 mg KAR5585 single oral dose, mean) was 2130 µg and the “Total Excreted (%)” value ([1]; KAR5417 in urine, 2000 mg KAR5585 single oral dose, mean, assuming complete conversion of KAR5585 to KAR5417) was 0.112%. The CL renal ([1]; plasma and urine, oral, from plasma AUC0-96 and amount recovered in urine, read-out: Renal clearance, range across doses) was 2.62 to 4.93 mL/min, the CL renal ([1]; urine and plasma, po, 100 mg, KAR5417, 100 mg KAR5585 single oral dose, mean, read-out: CLR (converted)) was 4.93 mL/min and the CL renal ([1]; urine and plasma, po, 200 mg, KAR5417, 200 mg KAR5585 single oral dose, mean, read-out: CLR (converted)) was 2.67 mL/min. The CL renal ([1]; urine and plasma, po, 400 mg, KAR5417, 400 mg (fasted) KAR5585 single oral dose, mean, read-out: CLR (converted)) was 3.62 mL/min, the CL renal ([1]; urine and plasma, po, 400 mg, KAR5417, 400 mg (fed) KAR5585 single oral dose, mean, read-out: CLR (converted)) was 3.18 mL/min and the CL renal ([1]; urine and plasma, po, 700 mg, KAR5417, 700 mg KAR5585 single oral dose, mean, read-out: CLR (converted)) was 3.18 mL/min. For the same compound, the CL renal ([1]; urine and plasma, po, 1200 mg, KAR5417, 1200 mg KAR5585 single oral dose, mean, read-out: CLR (converted)) was 2.62 mL/min, the CL renal ([1]; urine and plasma, po, 2000 mg, KAR5417, 2000 mg KAR5585 single oral dose, mean, read-out: CLR (converted)) was 3.43 mL/min and the “tendency to increase QTcF in a dose-dependent manner” value [2] was “Neither the prodrug (KAR5585) nor the active drug (KAR5417) showed any tendency to increase QTcF in a dose-dependent manner”. For the same compound, the Cmax at 1 day ([3]; plasma, oral) was 121 ng/mL and the Cmax at 14 day ([3]; plasma, oral) was 194 ng/mL.
In the case of `CCOC(=O)[C@@H]1CC2(CCN(c3cc(O[C@H](c4ccc(Cl)cc4-c4ccccc4)C(F)(F)F)nc(N)n3)CC2)CN1` [KAR5585, (S)-ethyl 8-(2-amino-6-((R)-1-(5-chloro-[1,1′-biphenyl]-2-yl)-2,2,2-trifluoroethoxy)pyrimidin-4-yl)-2,8-diazaspiro[4.5]decane-3-carboxylate], the “Amount Excreted (Ae)” value [1, 4] is reported as 0 µg, the “Total Excreted (%)” value [1, 4] is reported as 0% and the “Amount Excreted (Ae)” value [1, 5] is reported as 0 µg. The “Total Excreted (%)” value [1, 5] was 0%, the “Amount Excreted (Ae)” value [1, 6] was 13.8 µg and the “Total Excreted (%)” value [1, 6] was 0.00346%. For the same compound, the “Amount Excreted (Ae)” value [1, 7] was 0 µg, the “Total Excreted (%)” value [1, 7] was 0% and the “Amount Excreted (Ae)” value [1, 8] was 0 µg. The “Total Excreted (%)” value [1, 8] was 0%, the “Amount Excreted (Ae)” value ([1]; KAR5585 in urine, 2000 mg KAR5585 single oral dose, mean) was 1.50 µg and the CL renal ([1]; urine and plasma, po, 2000 mg, KAR5585, 2000 mg KAR5585 single oral dose, mean, read-out: CLR (converted)) was 0.0383 mL/min. For the same compound, the “tendency to increase QTcF in a dose-dependent manner” value [2] was “Neither the prodrug (KAR5585) nor the active drug (KAR5417) showed any tendency to increase QTcF in a dose-dependent manner”, the half-life ([3]; in vivo, 400 mg) was 3.14 h and the Cmax ([3]; in vivo, 400 mg/dose) was 110 ng/mL. The Cmax at 1 day ([3]; plasma, oral) was 16.7 ng/mL, the Cmax at 14 day ([3]; plasma, oral) was 21.3 ng/mL and the AUC(0-inf) ([3]; plasma, oral, 100 mg/dose) was 54.1 ng·h/mL. It also gave an AUC(0-t) ([3]; plasma, oral, 100 mg/dose) of 50.8 ng·h/mL, a Cmax ([3]; plasma, oral, 100 mg/dose) of 15.8 ng/mL and a Tmax ([3]; plasma, oral, 100 mg/dose) of 1 h. It also gave a Vd/F ([3]; plasma, oral, 100 mg/dose) of 4620 L, a half-life ([3]; plasma, oral, 100 mg/dose) of 1.73 h and an AUC(0-inf) ([3]; plasma, oral, 400 mg) of 305 ng·h/mL. For the same compound, the Tmax ([3]; plasma, oral, 400 mg) was 2 h, the AUC(0-inf) ([3]; plasma, oral, 400 mg/dose) was 482 ng·h/mL and the Cmax ([3]; plasma, oral, 400 mg/dose) was 89 ng/mL. It also gave a concentration at 12 h ([3]; plasma, oral, 400 mg/dose) of 11.4 ng/mL and a half-life ([3]; plasma, oral, 400 mg/dose) of 6.45 h.
